Tested on: intestinal epithelial cells F-hiSIEC
Assay: Permeation test of Lucifer yellow across intestinal epithelial cell sheet on cell culture insert
Assay type: in vitro ADME
Conditions: for Permeability coefficient (Papp) Average (mean): 110 μM Lucifer yellow/HBSS, 37° C., 1 hour
Procedure: One gas absorbent (oxygen scavenger) (Anaeropack: Mitsubishi Chemical Corporation) was installed in the upper tank of the cell culture device in FIG. 1, the upper tank portion was sealed, and the sealed upper tank portion was installed on the 6-well plate, which was the lower tank portion. In addition, intestinal epithelial cells F-hiSIEC (FUJIFILM Corporation) were seeded on a cell culture insert (Millipore) coated with Matrigel, and cultured for 9 days according to a manual using F-hiSIEC Culture Medium (FUJIFILM Corporation). 150 μL of F-hiSIEC Culture Medium (FUJIFILM Corporation) was added to an upper surface of the cell culture insert on which the cells on the 9th day of the culture had been seeded, and the cell culture insert was installed in the device from a lower side of the upper tank of the device, using the insertion tool shown in FIG. 5. While sandwiching the cell culture insert, 1 mL of a culture medium was added to a well plate of the lower tank, the upper tank portion of the device was installed in the well plate, and the entire device was placed in a CO2 incubator for culture for 72 hours. After the culture, a trans-epithelial electrical resistance (TEER) value of the intestinal epithelial cells was measured with an EVOM2 system. In addition, the permeation rate (Papp) of Lucifer yellow and the gene expression of various intestinal epithelial cell markers were compared with cells cultured under aerobic conditions in both the upper tank and the lower tank. The aerobic conditions in the upper tank and the lower tank mean cells cultured by installing a lid attached to the well plate without using the co-culture device. In the permeation test of Lucifer yellow, the upper and lower culture media in the insert containing the cells are substituted with HBSS and incubated at 37° C. for 1 hour. […] After 1 hour, the amount of substance which had passed through the lower part of the cell culture insert was quantified by a plate reader (Enspire, PerkinElmer Inc.), and the permeation rate and the permeability coefficient (Papp) were calculated.

Substance: Lucifer yellow
- Permeability coefficient (Papp) Average (mean) (F-hiSIEC cells cultured 72 hours in the cell culture device (upper tank anaerobic, lower tank aerobic)): 1.54 ×10⁻⁶ cm/s
- Permeability coefficient (Papp) Average (mean) (F-hiSIEC cells cultured 72 hours under aerobic conditions in both upper and lower tank (no device)): 0.7 ×10⁻⁶ cm/s
- Increase of Papp in anaerobic cultured cells as compared with aerobic cells (anaerobic vs aerobic cultured F-hiSIEC cells, 72 hours culture): approximately 2 times

Source: US20240302353A1, “CELL CULTURE DEVICE, KIT FOR CELL CULTURE, AND CELL CULTURE METHOD” (FUJIFILM Corporation, priority 2021, published 2024)
